In patent US20120015925A1, “NOVEL BENZOTHIAZEPINE AND BENZOTHIEPINE COMPOUNDS” (ASAHI KASEI PHARMA CORPORATION, priority 2004, published 2012):

Tests used:
Caco-2 cells = test: Facilitation effect on permeability of combined compound (pravastatin, atorvastatin) through Caco-2 cells
Description: The permeability through Caco-2 cells was measured by the same way as in Test Example 15.
It was examined whether the permeability coefficient of the combined compound was changed in the presence of the compound described in Examples or the compound in Comparative Examples.

male beagle dogs = test: Effect of combination with pravastatin on plasma total cholesterol levels in dogs; format: in vivo, dog
Source text: The effect of the combination of the compounds described in Example with pravastatin (HMG-CoA reductase inhibitor) on plasma cholesterol levels in dogs was examined.
To male beagle dogs (supplied from Kitayama Labes, body weight 9 to 13 kg), usual solid feedstuff (DS-A: Oriental Yeast Co., Ltd.) was given once daily at 13:00 to 14:00. The light was turned on from 7:00 to 19:00 as a light period, and the remaining was defined as a dark period. Water was given ad libitum. In the morning in the week prior to the administration, the blood was collected with heparin from forearm cephalic vein, and plasma was collected by centrifugation. The total cholesterol level of this plasma was measured using the commercially available cholesterol level measurement kit by the enzymatic method (Cholesterol-E Test Wako). The dogs were grouped so that the total cholesterol levels were almost equal. Sodium pravastatin (1 mg/kg, Sankyo) alone or 3 mg/kg of the compound described in each of Examples alone or the combination thereof was orally administered once daily just before feeding for 7 days. Pravastatin was dissolved in distilled water, and the compound described in Example was suspended in 0.5% methylcellulose solution for administration. On the day after the final administration, the blood was collected from the forearm cephalic vein under starving, to which plasma was obtained. The total cholesterol level therein was measured by the same way. As a result, the total cholesterol level in the plasma was reduced by 7 mg/dL (6%) by orally administering 1 mg/kg/day of pravastatin for 7 days. The total cholesterol level in the plasma was reduced by […] (3 to 8%) by orally administering 3 mg/kg/day of the compound described in each of Examples for 7 days. When pravastatin and the compound described in each of Examples were co-administered at this dosages, the total cholesterol in the plasma was reduced by 14 to 24 mg/dL (12 to 20%). The reduction rate of the total cholesterol level was larger in the co-administration with the compound described in Example than in the administration of pravastatin alone, and the augmented effect by the co-administration was observed.

[1] = pravastatin 1 mg/kg alone, oral once daily for 7 days, vehicle 1

For CC[C@H](C)C(=O)O[C@H]1C[C@H](O)C=C2C=C[C@H](C)[C@H](CC[C@@H](O)C[C@@H](O)CC(=O)O)[C@H]21 [pravastatin, reference compound], the “RATE OF INCREASE (%)” value (Caco-2 cells; statin alone (reference = 100)) was 100%, the “[…] (PERMEATION × 10^−6 cm/s)” value (Caco-2 cells; statin alone, 25 μM, 37° C., 2 hours) was 0.33 × 10^−6 cm/s and the “plasma total cholesterol BEFORE TREATMENT” value (male beagle dogs; pravastatin 1 mg/kg alone group, baseline, N=4, mean±standard error) was 114 ± 6 mg/dL. The “plasma total cholesterol AFTER TREATMENT” value (male beagle dogs; pravastatin 1 mg/kg alone, oral once daily for 7 days, N=4, mean±standard error) was 106 ± 5 mg/dL, the “plasma total cholesterol BEFORE TREATMENT − AFTER TREATMENT” value (male beagle dogs; [1]) was 7 mg/dL and the “reduction rate with respect to the data before administration (number in parenthesis)” value (male beagle dogs; [1]) was 6. The “total cholesterol level in the plasma reduced by” value (male beagle dogs; pravastatin alone 1 mg/kg/day oral, 7 days) was 7 mg/dL and the “total cholesterol level in the plasma, reduction rate” value (male beagle dogs; pravastatin alone 1 mg/kg/day oral, 7 days, with respect to before administration) was 6%.
